In patent publication EP1561465A2, “Methods of use of fluoroquinolone compounds against bacteria” (LG Life Sciences, Ltd., priority 1999, dated 2001):
In brackets after ≈: the same amount, converted by molar mass. Like-named read-outs stand apart in the source and are kept apart here.

Experiments:
Type in all cases: cell-based
Streptococcus pyogenes [1] = test: MIC by NCCLS reference broth microdilution, 450 respiratory tract pathogens; conditions: Streptococcus pyogenes
Streptococcus pneumoniae [2] = test: MIC by agar dilution (NCCLS), 411 isolates Buenos Aires 1998-99; conditions: for MIC / MIC90: Streptococcus pneumoniae; for MIC: Ciprofloxacin-resistant S. pneumoniae, read-out: MIC; for MIC90: read-out: MIC90
Providencia rettgeri = test: MIC by NCCLS broth microdilution, 1100 Japanese clinical isolates 1997-1998; conditions: for MIC50: Providencia rettgeri; for MIC90 / MIC Range: Providencia rettgeri (n=12)
Salmonella spp. = test: as above; conditions: Salmonella spp. (n=29)
Proteus vulgaris = test: as above
Serratia marcescens = test: as above; conditions: for MIC50: Serratia marcescens
Aeromonas spp. = test: MIC by agar dilution (NCCLS M7-A4), 288 enteropathogenic isolates, eight quinolones; conditions: Aeromonas spp. (n = 16)
Streptococcus pyogenes [3] = test: MIC by agar dilution (NCCLS), 411 isolates Buenos Aires 1998-99; conditions: Streptococcus pyogenes (n = 69)
Haemophilus influenzae = test: MIC by two-fold serial agar dilution, Sensitivity Disk agar-N (Kitasato isolates); conditions: Haemophilus influenzae (24)
Proteus mirabilis = test: MIC by agar dilution (NCCLS), 322 nosocomial Gram negative isolates, Athens 1998; conditions: Proteus mirabilis; n = 57 isolates
Streptococcus pneumoniae [4] = test: MIC by E-test (broth microdilution for gemifloxacin), 107 pneumococcal carrier isolates, Athens 1998; conditions: E-test; for MIC Range: in µg/mL (unit assumed); for MIC50 / MIC90: Streptococcus pneumoniae; for MIC50: read-out: MIC50; for MIC90: read-out: MIC90
Procedure: Susceptibility testing was performed by agar dilution or epsilometer method (E-test), as recommended by the NCCLS. […] The susceptibility profiles of the strains were assessed using the Epsilometer method (E-test). The isolates were subdivided into two groups according to their penicillin susceptibility patterns (penicillin-susceptible and penicillin-intermediate.

Klebsiella pneumoniae = test: MIC by agar dilution (NCCLS), 322 nosocomial Gram negative isolates, Athens 1998; conditions: n = 56 isolates
Staphylococcus aureus = test: MIC by agar macrodilution (NCCLS), 373 Gram positive isolates, Athens 1998; conditions: Methicillin-susceptible Staphylococcus aureus (n = 85)
[5] = erythromycin resistant C phenotype [MLSB] (n = 20)
[6] = erythromycin resistant I phenotype [MLSB] (n = 20)
[7] = Streptococcus pneumoniae (n = 90)
[8] = Penicillin-intermediate S. pneumoniae (n = 24)
[9] = Penicillin-susceptible S. pneumoniae (n = 107)

## C[C@H]1COc2c(N3CCN(C)CC3)c(F)cc3c(=O)c(C(=O)O)cn1c23 [Levofloxacin, levofloxacin]
Streptococcus pyogenes [1]; Streptococcus pyogenes (n = 100)
  MIC: 0.06 to 2 µg/mL (≈ 0.166 to 5.53 µM)
Streptococcus pyogenes [1]; [5]
  MIC: 0.25 to 1 µg/mL (≈ 0.692 to 2.77 µM)
  MIC50: 0.25 µg/mL (≈ 0.692 µM)
  MIC90: 0.25 µg/mL (≈ 0.692 µM)
Streptococcus pyogenes [1]; [6]
  MIC: 0.25 to 2 µg/mL (≈ 0.692 to 5.53 µM)
  MIC50: 0.25 µg/mL (≈ 0.692 µM)
  MIC90: 0.25 µg/mL (≈ 0.692 µM)
Streptococcus pyogenes [1]; erythromycin resistant M phenotype (n = 20)
  MIC: 0.06 to 1 µg/mL (≈ 0.166 to 2.77 µM)
Streptococcus pyogenes [1]; fully susceptible (n = 20)
  MIC: 0.25 to 2 µg/mL (≈ 0.692 to 5.53 µM)
Streptococcus pyogenes [1]; multi-drug resistant (n = 20)
  MIC: 0.25 to 1 µg/mL (≈ 0.692 to 2.77 µM)
Streptococcus pneumoniae [2]; [7]
  MIC Range: 0.25 to 4 µg/mL
  MIC90: 1 µg/mL (≈ 2.77 µM)
Streptococcus pneumoniae [2]; Strain 1
  MIC: 1 µg/mL (≈ 2.77 µM)
Streptococcus pneumoniae [2]; Strain 2
  MIC: 1 µg/mL (≈ 2.77 µM)
Streptococcus pneumoniae [2]; Strain 3
  MIC: 4 µg/mL (≈ 11.1 µM)
Streptococcus pneumoniae [2]; Strain 4
  MIC: 2 µg/mL (≈ 5.53 µM)
Streptococcus pneumoniae [2]; S. pneumoniae, Penicillin intermediate (n = 17)
  MIC90: 1 µg/mL (≈ 2.77 µM)
Streptococcus pneumoniae [2]; S. pneumoniae, Penicillin resistant (n = 4)
  MIC90: 1 µg/mL (≈ 2.77 µM)
Streptococcus pneumoniae [2]; S. pneumoniae, Penicillin susceptible (n = 69)
  MIC90: 1 µg/mL (≈ 2.77 µM)
Providencia rettgeri
  MIC50: 0.125 µg/mL (≈ 0.346 µM)
  MIC90: 8 µg/mL (≈ 22.1 µM)
  MIC Range: 0.125 to 8 µg/mL
Salmonella spp.
  MIC50: 0.063 µg/mL (≈ 0.174 µM)
  MIC90: 0.063 µg/mL (≈ 0.174 µM)
  MIC Range: 0.032 to 0.063 µg/mL
Proteus vulgaris; Proteus vulgaris
  MIC90: 0.125 µg/mL (≈ 0.346 µM)
Proteus vulgaris; Proteus vulgaris (n=25)
  MIC Range: 0.032 to 1 µg/mL
Proteus vulgaris; Proteus vulgaris (n=25), read-out: MIC50
  MIC50: 0.063 µg/mL (≈ 0.174 µM)
Serratia marcescens
  MIC50: 0.125 µg/mL (≈ 0.346 µM)
Serratia marcescens; Serratia marcescens (n=30)
  MIC90: 0.5 µg/mL (≈ 1.38 µM)
  MIC Range: 0.063 to 32 µg/mL
Aeromonas spp.
  % Susceptible: 100%
  MIC50: ≤ 0.015 µg/mL
  MIC90: ≤ 0.015 µg/mL
  MIC Range: ≤0.015 to 0.06 µg/mL
Streptococcus pyogenes [3]
  MIC Range: 0.25 to 2 µg/mL
Haemophilus influenzae
  MIC50: 0.031 µg/mL (≈ 0.0858 µM)
  MIC90: 0.031 µg/mL (≈ 0.0858 µM)
  MIC Range: 0.016 to 0.031 µg/mL

## Cc1c(F)c(N2CCNC(C)C2)cc2c1c(=O)c(C(=O)O)cn2C1CC1 (centres unmarked) [Grepafloxacin, grepafloxacin]
Proteus mirabilis
  MIC50: 0.5 µg/mL (≈ 1.39 µM)
  MIC90: 16 µg/mL (≈ 44.5 µM)
Streptococcus pneumoniae [4]; [8]
  MIC Range: 0.047-0.5
  MIC50: 0.19 µg/mL (≈ 0.529 µM)
  MIC90: 0.38 µg/mL (≈ 1.06 µM)
Streptococcus pneumoniae [4]; [9]
  MIC Range: 0.047-1
  MIC50: 0.19 µg/mL (≈ 0.529 µM)
  MIC90: 0.38 µg/mL (≈ 1.06 µM)
Klebsiella pneumoniae; Klebsiella pneumoniae
  MIC50: 0.125 µg/mL (≈ 0.348 µM)
  MIC90: 1 µg/mL (≈ 2.78 µM)
Klebsiella pneumoniae
  MIC Range: ≤0.03 to 64 µg/mL
Aeromonas spp.
  % Susceptible: 100%
  MIC50: 0.03 µg/mL (≈ 0.0835 µM)
  MIC90: 0.06 µg/mL (≈ 0.167 µM)
  MIC Range: ≤0.015 to 0.12 µg/mL
Staphylococcus aureus
  MIC Range: 0.06 to 32 µg/mL
Staphylococcus aureus; read-out: MIC50
  MIC50: 0.125 µg/mL (≈ 0.348 µM)
Staphylococcus aureus; read-out: MIC90
  MIC90: 0.25 µg/mL (≈ 0.696 µM)

## NC1CCN(c2nc3c(cc2F)c(=O)c(C(=O)O)cn3-c2ccc(F)cc2F)C1 (centres unmarked) [Tosufloxacin, tosufloxacin]
Providencia rettgeri
  MIC50: 0.125 µg/mL (≈ 0.309 µM)
  MIC90: 8 µg/mL (≈ 19.8 µM)
  MIC Range: 0.063 to 8 µg/mL
Salmonella spp.
  MIC50: 0.032 µg/mL (≈ 0.0791 µM)
  MIC90: 0.063 µg/mL (≈ 0.156 µM)
  MIC Range: 0.016 to 0.063 µg/mL
Proteus vulgaris; Proteus vulgaris
  MIC50: 0.125 µg/mL (≈ 0.309 µM)
Proteus vulgaris; Proteus vulgaris (n=25)
  MIC Range: 0.063 to 1 µg/mL
Proteus vulgaris; Proteus vulgaris (n=25), read-out: MIC90
  MIC90: 0.5 µg/mL (≈ 1.24 µM)
Serratia marcescens
  MIC50: 0.125 µg/mL (≈ 0.309 µM)
Serratia marcescens; Serratia marcescens (n=30)
  MIC90: 1 µg/mL (≈ 2.47 µM)
